According to patent US9163020B2, “Azaindole compounds, synthesis thereof, and methods of using the same” (Global Alliance for TB Drug Development, priority 2013, dated 2015):
Values after ≈ are worked out from the molar mass of the structure shown. Read-outs that look alike come from different tables or passages of the source.

Experiments:
[1] = test system: Mtb DprE1 OE; experiment: microbe, parasite or virus in culture; assay type: cell-based, Mycobacterium tuberculosis
[2] = test system: Mtb DprE1 Y314H; assay type: cell-based, Mycobacterium tuberculosis
[3] = test system: Mtb DprE1 C387G; assay type: cell-based, Mycobacterium tuberculosis
[4] = test system: Mycobacterium tuberculosis (Mtb) H37Rv ATCC 27294; experiment: microbe, parasite or virus in culture; assay type: cell-based; details: read-out: MIC, Mtb H37Rv
[5] = test system: Mtb DprE1 C387S; assay type: cell-based, Mycobacterium tuberculosis
[6] = Mycobacterium tuberculosis, DPRE1OE, read-out: MIC, Mtb DprE1 OE
[7] = Mycobacterium tuberculosis, DPRE1OE, Table 5, read-out: Mtb DprE1 OE MIC

| Compound | MIC [1, 6] | MIC, Mtb DprE1 Y314H [2] | cross-resistance to mutant strain (Tyr314His) [2] | MIC, Mtb DprE1 C387G [3] | MIC [4] | MIC, Mtb DprE1 C387S [5] | MIC ([4]; Mycobacterium tuberculosis) | MIC [1, 7] | Mtb DprE1 Y314H MIC [2] | Mtb DprE1 C387G MIC [3] | Mtb DprE1 C387S [5] | MIC ([1]; read-out: MIC, Mtb DprE1 OE) |
| --- | --- | --- | --- | --- | --- | --- | --- | --- | --- | --- | --- | --- |
| C[C@H]1COC2(CCN(c3nc(=O)c4cc(C(F)(F)F)cc([N+](=O)[O-])c4s3)CC2)O1 [BTZ043] | 50 µM (≈ 21.6 µg/mL) | 0.0015 to 0.003 µM | resistance was not observed | >0.1 µM | 0.003 µM (≈ 0.00129 µg/mL) | >0.1 µM |  |  |  |  |  |  |
| COc1ncnc(Cn2cc(C(=O)NCCF)c3ncccc32)c1C [Compound 3, N-(2-fluoroethyl)-1-((6-methoxy-5-methylpyrimidin-4-yl)methyl)-1H-pyrrolo[3,2-b]pyridine-3-carboxamide] | 50 µM (≈ 17.2 µg/mL) | >100 µM |  | 0.78 µM (≈ 0.268 µg/mL) | 3.12 µM (≈ 1.07 µg/mL) | 3.12 µM (≈ 1.07 µg/mL) |  |  |  |  |  |  |
| COc1ncnc(Cn2cc(C(=O)NCCF)c3ncc(C)cc32)c1C [Compound 8, N-(2-fluoroethyl)-1-((6-methoxy-5-methylpyrimidin-4-yl)methyl)-6-methyl-1H-pyrrolo[3,2-b]pyridine-3-carboxamide] | 6.25 µM (≈ 2.23 µg/mL) | >200 µM |  | 0.39 µM (≈ 0.139 µg/mL) |  | 0.39 µM (≈ 0.139 µg/mL) | 0.39 µM (≈ 0.139 µg/mL) |  |  |  |  |  |
| COc1ncnc(Cn2cc(C(=O)NCCO)c3ncc(C)cc32)c1C [Compound 17, N-(2-hydroxyethyl)-1-((6-methoxy-5-methylpyrimidin-4-yl)methyl)-6-methyl-1H-pyrrolo[3,2-b]pyridine-3-carboxamide] | 100 µM (≈ 35.5 µg/mL) | >200 µM |  | 0.78 µM (≈ 0.277 µg/mL) |  | 0.39 µM (≈ 0.139 µg/mL) | 1.56 µM (≈ 0.554 µg/mL) |  |  |  |  |  |
| Cc1ccc(Cn2cc(C(=O)NCCF)c3ncccc32)c(C)c1 [Compound 31, 1-(2,4-dimethylbenzyl)-N-(2-fluoroethyl)-1H-pyrrolo[3,2-b]pyridine-3-carboxamide] |  |  |  |  |  |  |  | 25 µM (≈ 8.13 µg/mL) | 25 µM | 0.78 µM | 0.78 µM |  |
| COc1cccc(F)c1Cn1cc(C(=O)NCC2CC2)c2ncccc21 [Compound 32, N-(cyclopropylmethyl)-1-(2-fluoro-6-methoxybenzyl)-1H-pyrrolo[3,2-b]pyridine-3-carboxamide] |  |  |  |  |  |  |  | 50 µM (≈ 17.7 µg/mL) | 200 µM | 0.39 µM | 0.39 µM |  |
| CC[C@@H](CO)NCCN[C@@H](CC)CO [Ethambutol] | 2 µM (≈ 0.409 µg/mL) | 2.0 to 4.0 µM |  | 4 µM (≈ 0.817 µg/mL) |  | 2 µM (≈ 0.409 µg/mL) | 2 µM (≈ 0.409 µg/mL) |  |  |  |  |  |
| NNC(=O)c1ccncc1 [Isoniazid] | 0.03 µM (≈ 0.00411 µg/mL) | 0.06 µM (≈ 0.00823 µg/mL) |  | 0.06 µM (≈ 0.00823 µg/mL) |  | 0.06 µM (≈ 0.00823 µg/mL) | 0.06 µM (≈ 0.00823 µg/mL) |  |  |  |  |  |
| COc1c(N2C[C@@H]3CCCN[C@@H]3C2)c(F)cc2c(=O)c(C(=O)O)cn(C3CC3)c12 [Moxifloxacin, reference compound] | 0.06 µM (≈ 0.0241 µg/mL) |  |  |  |  |  | 0.125 µM (≈ 0.0502 µg/mL) |  |  |  |  |  |
| CC1COc2c(N3CCN(C)CC3)c(F)cc3c(=O)c(C(=O)O)cn1c23 (centres unmarked) [Ofloxacin, reference compound] | 0.5 µM (≈ 0.181 µg/mL) |  |  |  |  |  | 1 µM (≈ 0.361 µg/mL) |  |  |  |  |  |
| CO[C@H]1/C=C/O[C@@]2(C)Oc3c(C)c(O)c4c(O)c(c(/C=N/N5CCN(C)CC5)c(O)c4c3C2=O)NC(=O)/C(C)=C\C=C\[C@H](C)[C@H](O)[C@@H](C)[C@@H](O)[C@@H](C)[C@H](OC(C)=O)[C@@H]1C [Rifampicin] | 0.003 µM (≈ 0.00247 µg/mL) |  |  |  |  |  |  |  |  |  |  |  |
| COc1nc2ccc(Br)cc2cc1[C@@H](c1ccccc1)[C@@](O)(CCN(C)C)c1cccc2ccccc12 [TMC207] | 0.15 µM (≈ 0.0833 µg/mL) | 0.15 to 0.3 µM |  | 0.15 µM (≈ 0.0833 µg/mL) |  | 0.3 µM (≈ 0.167 µg/mL) | 0.6 µM (≈ 0.333 µg/mL) |  |  |  |  |  |
| Clofazimine |  | 0.125 µM |  | 0.03 µM | 0.125 µM | 0.03 µM |  |  |  |  |  | 0.06 µM |
| D-cycloserine |  | 8.0 to 16.0 µM |  | 8 µM | 8 µM | 8 µM |  |  |  |  |  | 8 µM |
